Reference: ChEMBL document CHEMBL4428085, “Benzimidazole analogs as WTA biosynthesis inhibitors targeting methicillin resistant Staphylococcus aureus” (Bioorg Med Chem Lett, 2016)

Experiments:
[1] = Inhibition of Staphylococcus aureus TarO
Staphylococcus aureus [2] = test: Antibacterial activity against methicillin-resistant Staphylococcus aureus COL; assay type: functional
[3] = Inhibition of Staphylococcus aureus TarO assessed as reversal of targocil-mediated bacterial growth inhibition
[4] = Inhibition of Staphylococcus aureus TarO assessed as suppression of bacteriophageK-mediated cell lysis
[5] = system: Staphylococcus aureus subsp. aureus COL; test: Inhibition of methicillin-resistant Staphylococcus aureus COL TarO assessed as concentration of compound for potentiation of action of imipenem-mediated bacterial growth inhibition by 95 %
Staphylococcus aureus [6] = test: Inhibition of methicillin-resistant Staphylococcus aureus TarO assessed as potentiation of action of imipenem-mediated bacterial growth inhibition by measuring percentage of compound MITC95<=25 uM for 25 isolates; set-up: scale not given: the % may be the effect or the level left
[7] = system: Staphylococcus epidermidis; test: Inhibition of methicillin-resistant Staphylococcus epidermidis TarO assessed as potentiation of action of imipenem-mediated bacterial growth inhibition by measuring percentage of compound MITC95<=25 uM for 25 isolates; set-up: scale not given: the % may be the effect or the level left
[8] = Oral bioavailability in rat at 2 mg/kg; assay type: ADME, organism-based; details: in vivo
[9] = AUC (0 to 24 hrs) in rat at 2 mg/kg, po; assay type: ADME, organism-based; set-up: dose 2 mg/kg, time < 24 hr, route oral; details: in vivo
[10] = Half life in rat at 2 mg/kg, po; assay type: ADME, organism-based; details: in vivo

CCN(C(=O)CCn1c2ccc(Br)cc2nc1[C@H]1CC[C@H](CC)CC1)C1CCCCC1
IC50 [1]: < 0.4 µM
Activity (Staphylococcus aureus [2]): >200 µM

CCN(C(=O)CCn1c2cc(-c3cnn(C)c3)ccc2nc1[C@H]1CC[C@H](CC)CC1)C1CCCCC1
EC50 [3]: 0.6 µM
IC50 [1]: 0.05 µM
EC50 [4]: 0.7 µM
MITC95 [5]: 0.2 µM
Activity (Staphylococcus aureus [6]): 80%
Activity [7]: 67%

CCOC(=O)N1CCCC(c2nc3cc(F)ccc3n2CCC(=O)N(CC)C2CCCCC2)C1 (stereo not given)
EC50 [3]: 3.3 µM
IC50 [1]: 0.1 µM
EC50 [4]: 3.3 µM
MITC95 [5]: 0.4 µM
Activity (Staphylococcus aureus [6]): 68%

CCN(C(=O)CCn1c2cc(-c3ccc(O)cc3)ccc2nc1[C@H]1CC[C@H](CC)CC1)C1CCCCC1
EC50 [3]: 1.8 µM
IC50 [1]: 0.1 µM
EC50 [4]: 29 µM
MITC95 [5]: 0.3 µM
Activity (Staphylococcus aureus [6]): 56%

CCN(C(=O)CCn1c2cc(-c3ccc(CO)cc3)ccc2nc1[C@H]1CC[C@H](CC)CC1)C1CCCCC1
EC50 [3]: > 200 µM
IC50 [1]: 0.3 µM
EC50 [4]: > 200 µM
MITC95 [5]: 4.7 µM

CCN(C(=O)CCn1c2ccc(F)cc2nc1[C@H]1CC[C@H](CC)CC1)C1CCCCC1
EC50 [3]: 0.03 µM
bioavailability [8]: 15%
IC50 [1]: 0.04 µM
Activity (Staphylococcus aureus [2]): > 200 µM
EC50 [4]: 0.04 µM
MITC95 [5]: 0.004 µM
Activity (Staphylococcus aureus [6]): 76%
AUC [9]: 0.9 µM·h
Activity [7]: 54%
half-life [10]: 5 h

CCN(C(=O)CCn1c(C2CCCN(C(=O)OC(C)(C)C)C2)nc2cc(F)ccc21)C1CCCCC1 (stereo not given)
EC50 [3]: 1.5 µM
IC50 [1]: 0.06 µM
EC50 [4]: 1.7 µM
MITC95 [5]: 0.5 µM
Activity (Staphylococcus aureus [6]): 64%
Activity [7]: 4%

CCN(C(=O)CCn1c2cc(C(=O)NC3CC3)ccc2nc1[C@H]1CC[C@H](CC)CC1)C1CCCCC1
EC50 [3]: 90 µM
IC50 [1]: 200 µM
EC50 [4]: 108 µM
MITC95 [5]: 50 µM

CCNC(=O)N1CCCC(c2nc3cc(F)ccc3n2CCC(=O)N(CC)C2CCCCC2)C1 (stereo not given)
EC50 [3]: > 200 µM
IC50 [1]: 28 µM
EC50 [4]: > 200 µM
MITC95 [5]: 100 µM

CCN(C(=O)CCn1c2cc(C(=O)O)ccc2nc1[C@H]1CC[C@H](CC)CC1)C1CCCCC1
EC50 [3]: > 200 µM
IC50 [1]: 147 µM
EC50 [4]: > 200 µM
MITC95 [5]: 200 µM

CCN(C(=O)CCn1c2cccc(F)c2nc1[C@H]1CC[C@H](CC)CC1)C1CCCCC1
EC50 [3]: 0.4 µM
IC50 [1]: 0.03 µM
EC50 [4]: 0.8 µM
MITC95 [5]: 0.1 µM
Activity (Staphylococcus aureus [6]): 68%
Activity [7]: 58%

CCN(C(=O)CCn1c2cc(CO)ccc2nc1[C@H]1CC[C@H](CC)CC1)C1CCCCC1
EC50 [3]: 7.1 µM
IC50 [1]: 0.1 µM
EC50 [4]: 5.4 µM
MITC95 [5]: 0.5 µM
Activity (Staphylococcus aureus [6]): 68%

CCN(C(=O)CCn1c2cc(CN(C)C)ccc2nc1[C@H]1CC[C@H](CC)CC1)C1CCCCC1
EC50 [3]: > 200 µM
IC50 [1]: 200 µM
EC50 [4]: > 200 µM
MITC95 [5]: 25 µM

CCN(C(=O)CCn1c2cc(-c3ccccc3)ccc2nc1[C@H]1CC[C@H](CC)CC1)C1CCCCC1
EC50 [3]: 0.03 µM
IC50 [1]: 0.004 µM
EC50 [4]: 0.2 µM
MITC95 [5]: 0.2 µM
Activity (Staphylococcus aureus [6]): 72%
Activity [7]: 12%

CCN(C(=O)CCn1c2c(F)cccc2nc1[C@H]1CC[C@H](CC)CC1)C1CCCCC1
EC50 [3]: 0.4 µM
IC50 [1]: 0.04 µM
EC50 [4]: 0.9 µM
MITC95 [5]: 0.8 µM
Activity (Staphylococcus aureus [6]): 68%
Activity [7]: 75%

CCN(C(=O)CCn1c(C2CCCNC2)nc2cc(F)ccc21)C1CCCCC1 (stereo not given)
EC50 [3]: > 200 µM
IC50 [1]: 16.5 µM
EC50 [4]: > 200 µM
MITC95 [5]: 200 µM

CC1(C)[C@@H]2CC[C@@]1(C)[C@@H](NC(=O)CCn1c(C3CCCCC3)nc3ccccc31)C2
EC50 [3]: 6 µM
IC50 [1]: 0.4 µM
Activity (Staphylococcus aureus [2]): >200 µM
EC50 [4]: 3 µM
MITC95 [5]: 3 µM

CCN(C(=O)CCn1c2cc(-c3cn[nH]c3)ccc2nc1[C@H]1CC[C@H](CC)CC1)C1CCCCC1
EC50 [3]: 24 µM
IC50 [1]: 200 µM
EC50 [4]: 100 µM
MITC95 [5]: 6.3 µM

CCN(C(=O)CCn1c(-c2ccc(C(=O)OC)cc2)nc2ccccc21)C1CCCCC1
EC50 [3]: 4.3 µM
IC50 [1]: 0.1 µM
EC50 [4]: 6.9 µM
MITC95 [5]: 1.2 µM
Activity (Staphylococcus aureus [6]): 64%

CCN(C(=O)CCn1c(-c2ccc(OCC(F)(F)F)cc2)nc2ccccc21)C1CCCCC1
EC50 [3]: 1.1 µM
IC50 [1]: 0.04 µM
EC50 [4]: 1.2 µM
MITC95 [5]: 0.3 µM
Activity (Staphylococcus aureus [6]): 68%
Activity [7]: 4%

CCN(C(=O)CCn1c(C2CCCN(C(C)=O)C2)nc2cc(F)ccc21)C1CCCCC1 (stereo not given)
EC50 [3]: > 200 µM
IC50 [1]: 48 µM
EC50 [4]: > 200 µM
MITC95 [5]: 100 µM

CCN(C(=O)CCn1c(-c2ccc(-n3ccnn3)cc2)nc2ccccc21)C1CCCCC1
EC50 [3]: > 200 µM
IC50 [1]: 3.8 µM
EC50 [4]: > 200 µM
MITC95 [5]: 19 µM

CCN(C(=O)CCn1c2cc(F)ccc2nc1[C@H]1CC[C@H](CC)CC1)C1CCCCC1
EC50 [3]: 0.7 µM
IC50 [1]: 0.02 µM
EC50 [4]: 0.8 µM
MITC95 [5]: 0.1 µM
Activity (Staphylococcus aureus [6]): 68%
Activity [7]: 42%
